A short description of assay [1]: Inhibition of RNA-dependent RNA polymerase in Zika virus PRVABC59/Human/2015/Puerto Rico infected in human NSC assessed as antiviral activity measured 72 hrs post infection by CellTiter-Glo assay. On the technique in general: In ATP-based viability assays light output follows the ATP content of the culture.
Assay [2] can be described thus: Inhibition of RNA-dependent RNA polymerase in Zika virus H/PAN/2016/BEI-259634 infected in human NSC assessed as antiviral activity measured 72 hrs post infection by CellTiter-Glo assay.
Assay [3] in a line: Inhibition of RNA-dependent RNA polymerase in Zika virus MR766 infected in African green monkey Vero E6 cells assessed as antiviral activity.
Assay [4] in a line: Inhibition of MTase in Zika virus infected in African green monkey Vero cells assessed as antiviral activity incubated for 5 days by inverted microscopic method.
Assay [5] in a line: Inhibition of RNA-dependent RNA polymerase in Zika virus PRVABC59 infected in African green monkey Vero cells assessed as antiviral activity measured 96 hrs post infection by plaque assay.
Assay [6] can be described thus: Inhibition of RNA-dependent RNA polymerase in Zika virus MR766 infected in HEK293 cells assessed as antiviral activity by measuring NS1 protein expression preincubated for 1 hr followed by viral infection and measured after 24 hrs by TR-FRET assay.
Assay [7] in a line: Inhibition of RNA-dependent RNA polymerase in Zika virus PRVABC59 infected in African green monkey Vero cells infected with supernatants from virus-infected human SNB-19 cells treated with compound for 1 hr assessed as antiviral activity after 48 to 72 hrs.
Assay [8] concerns the target T1, Genome polyprotein (Zika virus, UniProt A0A143MHK7). In words: Inhibition of RNA-dependent RNA polymerase in Zika virus MR766 infected in African green monkey Vero cells assessed as antiviral activity by measuring reduction in virus-induced cytopathic effect after 5 days by MTS assay. On the technique in general: Protection from cytopathic effect is a common read-out in antiviral testing.

For assay [9], the target named is T1, Genome polyprotein. In words: Inhibition of RNA-dependent RNA polymerase in Zika virus MR766 infected in African green monkey Vero cells assessed as antiviral activity by measuring reduction in virus-yield.
For assay [10], the target named is T1, Genome polyprotein. Description: Inhibition of RNA-dependent RNA polymerase in Zika virus MR766 infected in African green monkey Vero cells assessed as antiviral activity by methylene blue staining based by Plaque reduction assay.
In assay [11] the target is T1, Genome polyprotein. In words: Inhibition of RNA-dependent RNA polymerase in Zika virus MR766 infected in African green monkey Vero cells assessed as antiviral activity by Alexa Fluor 488/DAPI staining based assay.
Assay [12] addresses T1, Genome polyprotein. In words: Inhibition of RNA-dependent RNA polymerase in Zika virus Ugandan MR-766 infected in human RD cells assessed as antiviral activity by neutral dye based colorimetric method.
In assay [13] the target is T1, Genome polyprotein. Description: Inhibition of RNA-dependent RNA polymerase in Zika virus Malaysian P 6-740 infected in African green monkey Vero cells assessed as antiviral activity by neutral dye based colorimetric method.
Assay [14] addresses T1, Genome polyprotein. In words: Inhibition of RNA-dependent RNA polymerase in Zika virus Malaysian P 6-740 infected in human Huh-7 cells assessed as antiviral activity by neutral dye based colorimetric method.
For assay [15], the target named is T1, Genome polyprotein. Description: Inhibition of RNA-dependent RNA polymerase in Zika virus Ugandan MR-766 infected in African green monkey Vero cells assessed as antiviral activity by neutral dye based colorimetric method.
For assay [16], the target named is T1, Genome polyprotein. Description: Inhibition of RNA-dependent RNA polymerase in Zika virus PRVABC-59 infected in human HuH7 cells assessed as antiviral activity by neutral dye based colorimetric method.
The target in assay [17] is T1, Genome polyprotein. Description: Inhibition of RNA-dependent RNA polymerase in Zika virus Ugandan MR-766 infected in human Huh-7 cells assessed as antiviral activity by neutral dye based colorimetric method.
Assay [18] has as its target T1, Genome polyprotein. In words: Inhibition of RNA-dependent RNA polymerase in Zika virus PRVABC-59 infected in African green monkey Vero cells assessed as antiviral activity by neutral dye based colorimetric method.
Assay [19] has as its target T1, Genome polyprotein. Description: Inhibition of RNA-dependent RNA polymerase in Zika virus PRVABC-59 infected in human RD cells assessed as antiviral activity by neutral dye based colorimetric method.
Assay [20] in a line: Inhibition of RNA-dependent RNA polymerase in Zika virus infected in human NPC assessed as antiviral activity by DAPI-staining based assay.
The nature of assay [21]: Inhibition of RNA-dependent RNA polymerase in Zika virus infected in African green monkey Vero cells assessed as antiviral activity by DAPI-staining based assay.
The target of assay [22] is T2, Nonstructural protein 3 (Zika virus, UniProt A0A024AXB9). In words: Inhibition of NS2B-NS3 protease in Zika virus Puerto Rico/PRVABC5 infected in human Huh7 cells assessed as antiviral activity measured 48 hrs post infection by RT-PCR method.
T2 sequence (A0A024AXB9 whole entry): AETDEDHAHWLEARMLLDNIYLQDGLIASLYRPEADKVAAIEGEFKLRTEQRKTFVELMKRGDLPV
The target in assay [23] is T2, Nonstructural protein 3. In words: Inhibition of NS2B-NS3 protease in Zika virus Puerto Rico/PRVABC5 infected in African green monkey Vero cells assessed as antiviral activity measured 48 hrs post infection by RT-PCR method.
For assay [24], the target named is T2, Nonstructural protein 3. In words: Inhibition of NS2B-NS3 protease in Zika virus Puerto Rico/PRVABC5 assessed as antiviral activity measured 48 hrs post infection by plaque reduction assay.
For assay [25], the target named is T1, Genome polyprotein. Description: Inhibition of RNA-dependent RNA polymerase in Zika virus FSS13025/2010 infected in African green monkey Vero cells assessed as antiviral activity measured 48 hrs post infection by plaque assay.
Assay [26] deals with T1, Genome polyprotein. Description: Inhibition of RNA-dependent RNA polymerase in Zika virus GZ01/2016 infected in African green monkey Vero cells assessed as antiviral activity by measuring viral RNA by RT-qPCR method.
Assay [27] addresses T1, Genome polyprotein. In words: Inhibition of RNA-dependent RNA polymerase in Zika virus FSS13025/2010 infected in African green monkey Vero cells assessed as antiviral activity by measuring viral RNA by RT-qPCR method.
The target in assay [28] is T1, Genome polyprotein. Description: Inhibition of RNA-dependent RNA polymerase in Zika virus GZ01/2016 infected in African green monkey Vero cells assessed as antiviral activity measured 48 hrs post infection by plaque assay.
A short description of assay [29]: Inhibition of RNA-dependent RNA polymerase in Zika virus MR766 infected in African green monkey Vero cells assessed as antiviral activity after 72 hrs by DAPI staining based assay.

T1 sequence (A0A143MHK7 whole entry): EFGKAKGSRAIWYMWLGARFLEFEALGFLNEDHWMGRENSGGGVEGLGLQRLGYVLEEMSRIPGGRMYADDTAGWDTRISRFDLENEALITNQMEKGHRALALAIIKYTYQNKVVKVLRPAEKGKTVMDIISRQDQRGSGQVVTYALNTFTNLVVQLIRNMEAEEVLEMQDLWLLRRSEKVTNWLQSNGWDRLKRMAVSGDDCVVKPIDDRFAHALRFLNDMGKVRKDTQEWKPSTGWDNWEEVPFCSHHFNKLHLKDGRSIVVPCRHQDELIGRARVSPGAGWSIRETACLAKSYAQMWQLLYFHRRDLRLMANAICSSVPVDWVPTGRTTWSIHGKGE

Consider `C#C[C@@]1(O)[C@H](O)[C@@H](COP(=O)(N[C@@H](C)C(=O)OC(C)C)Oc2ccccc2)O[C@H]1n1ccc(=O)[nH]c1=O` (stereo partly specified), for which the concentration giving a half-maximal response (EC50) was 0.3 µM in assay [1] and 0.8 µM in [2].
For the compound `CCCCCOCc1c(Nc2ccc(S(N)(=O)=O)cc2)nc(N2CCOCC2)nc1C(=O)NCCOc1ccccc1`, the EC50 in assay [3] was 2.04 µM.
Regarding `CC(C)OC(=O)[C@H](C)NP(=O)(OC[C@H]1O[C@@H](n2ccc(=O)[nH]c2=O)[C@H](O)[C@@H]1O)Oc1ccccc1` (stereo partly specified), the concentration giving a half-maximal response (EC50) was found to be 1 µM in assay [1] and 2 µM in [2].
For the compound `O=C1c2cccc3cccc(c23)C(=O)N1CCc1ccc(S(=O)(=O)N2CCN(c3ccccc3)CC2)cc1`, in assay [4], the EC50 was 4.8 µM.
Consider `O=C(NC(=S)Nc1ccc(N2CCN(C(=O)c3cccs3)CC2)cc1)c1sc2ccccc2c1Cl`, for which the half-maximal effective concentration (EC50) in assay [5] is 0.094 µM.
As to `CC[C@H]1CN2CCc3cc(OC)c(OC)cc3[C@@H]2C[C@@H]1C[C@H]1NCCc2cc(OC)c(OC)cc21` [6',7',10,11-tetramethoxyemetan], the EC50 in [6] was found to be 0.053 µM; in [7], 0.0087 µM.
For the compound `Nc1ncnc2c1ccn2[C@@H]1O[C@H](CO)[C@@H](O)[C@H]1O` ['2-(4-AMINO-PYRROLO[2,3-D]PYRIMIDIN-7-YL)-5-HYDROXYMETHYL-TETRAHYDRO-FURAN-3,4-DIOL], the EC50 at Genome polyprotein [8], on Genome polyprotein [9], at Genome polyprotein [10] and on Genome polyprotein [11] was 1.3 µM in each case.
In the case of `Nc1ncnc2c([C@@H]3N[C@H](CO)[C@@H](O)[C@H]3O)c[nH]c12` [BCX-4430], the half-maximal effective concentration (EC50) on Genome polyprotein [12], at Genome polyprotein [13], on Genome polyprotein [14], on Genome polyprotein [15], on Genome polyprotein [16] and on Genome polyprotein [17] was 14.3 µM in each case. Further, the half-maximal effective concentration (EC50) on Genome polyprotein [18] and at Genome polyprotein [19] was 14.3 µM each time.
On to `CC(C)OC(=O)[C@H](C)N[P@](=O)(OC[C@H]1O[C@@H](n2ccc(=O)[nH]c2=O)[C@](C)(F)[C@@H]1O)Oc1ccccc1` [CHEBI:85083], for which the EC50 in assay [20] is 0.12 µM; in assay [21], 30.9 µM.
Take `CO[C@@H]1[C@@H](OC(N)=O)[C@@H](O)[C@H](Oc2ccc3c(O)c(NC(=O)c4ccc(O)c(CC=C(C)C)c4)c(=O)oc3c2C)OC1(C)C` [Carbamic acid 5-hydroxy-6-{4-hydroxy-3-[4-hydroxy-3-(3-methyl-but-2-enyl)-benzoylamino]-8-methyl-2-oxo-2H-chromen-7-yloxy}-3-methoxy-2,2-dimethyl-tetrahydro-pyran-4-yl ester(Novobiocin)]: the EC50 at Nonstructural protein 3 [22], on Nonstructural protein 3 [23] and on Nonstructural protein 3 [24] was 24.4 µM throughout.
`C#C[C@@]1(O)[C@H](O)[C@@H](CO)O[C@H]1n1ccc2c(N)ncnc21` [NITD008]: the concentration for a half-maximal effect (EC50) at Genome polyprotein [25], on Genome polyprotein [26], at Genome polyprotein [27] and at Genome polyprotein [28] was 0.137 µM throughout.
On to `NC(=O)c1ncn([C@@H]2O[C@H](CO)[C@@H](O)[C@H]2O)n1` [Tribavirin], for which, in assay [29], the EC50 turned out to be 20.8 µM.

Usually EC50 stands for the concentration needed to bring the measured effect to its halfway point.

For the origin of these results see BindingDB's records for doi:10.1021/acs.jmedchem.9b00775 (University of North Carolina at Chapel Hill, 2020).
